From patent US7053175B1, “Synthetic peptides useful in biological assays for detecting infections caused by group O HIV-1 viruses” (Bio-Rad Pasteur, priority 1997, dated 2006)
No end group written: not given here.

Test system: serum samples from patients infected with group O HIV-1 retroviruses
Assay: Immunoenzymatic test: Test No. 2 (immunoreactivity with diluted sera)
Format: binding, human
Conditions: for Number of samples: sera of Table V; for Number of samples / ABSORBANCE (OD): solid phase peptide 2 μg/ml; for ABSORBANCE (OD): cyclized; for immunoreactivity compared with the reference peptides (in words): summary of Tables V and VI
Text: The serum samples from patients infected with group O HIV-1 retroviruses were obtained by the Yaounde Pasteur Centre in Cameroon and were serotyped group O according to the serological algorithm described in AIDS (1977), 11, pp. 445-453. A genotyped sample (Maryland) is obtained from the United States. These samples were previously diluted in negative human serum at the dilutions given in Table V, in order to have a sufficient volume for the different immunoreactivity tests.
The synthetic peptides used were dissolved in water at a concentration of 1 mg/ml (stock solution). For the solid phase sensitization step (“coating”), the procedure was carried out as described for Example 2.
The serum samples were diluted 1/5 with a skimmed milk solution (citrate buffer supplemented with 0.01% of phenol red, 0.25% of chloroform and 0.25% of Kathon®), deposited in the wells of plates and incubated for 30 min at 40° C.
After washing with a Tris-NaCl buffer solution pH 7.4 containing 0.1% of Tween® 20 and 0.001% of sodium merthiolate, 100 μl of a solution of conjugate consisting of horseradish peroxidase-labelled anti-human IgG and IgM goat antibodies, containing as preservative 0.01% of sodium merthiolate, in solution in a citrate buffer solution supplemented with 30% glycerol and 25% normal foetal calf serum, were added to each well of the plates and then they were incubated for 30 min at 40° C.
After washing with a Tris-NaCl buffer solution pH 7.4 containing 0.1% of Tween® 20 and 0.001% of sodium merthiolate, the colour was developed as described in Example 2.
The relative absorbance (OD) (A490-A620) read in each well is proportional to the immunoreactivity of each peptide. It indicates the ability of each peptide to react with the biological sample with which the test is carried out.
The reactivity of the peptides of the invention, peptides No. 10 (14B), No. 11 (18B), No. 12 (19B), No. 14 (21B), No. 15 (22B), No. 16 (23B) all in cyclized form, was compared with that of three homologous synthetic peptides having, as sequence, a portion of the natural sequence of the envelope (env) of a group O HIV-1 retrovirus. These peptides are two peptides derived from the VAU isolate—the peptide VAU 22 AA and the peptide VAU 35 AA—and the peptide MVP 5180 (designated “MVP 5180” in Table V). The peptides VAU 22 AA and VAU 35 AA (whose structure is indicated in Example 2) and the peptide MVP 5180 comprise an immunodominant epitope of gp41.
All these peptides were used in cyclized form. The sequence of the MVP 5180 peptide is the following:
For each peptide tested, the samples were arranged into four classes (a, b, c and d) corresponding to various levels of relative absorbance read at the wavelengths A492-A620: • for a: OD<0.100, • for b: 0.100<OD<0.500, • for c: 0.500<OD<1.000, • for d: OD>1.000, thus making it possible to evaluate the degree of immunoreactivity of the peptides.

| Sequence | Number of samples (CLASS A (a: OD<0.100)) | Number of samples (CLASS B (b: 0.100<OD<0.500)) | Number of samples (CLASS C (c: 0.500<OD<1.000)) | Number of samples (CLASS D (d: OD>1.000)) | ABSORBANCE (OD) (serum 258 OUDI at 1/100) | ABSORBANCE (OD) (serum 625 at 1/50) | ABSORBANCE (OD) (serum 3600 at 1/100) | ABSORBANCE (OD) (serum 3613 at ¼00) | ABSORBANCE (OD) (serum 3653 at 1/10) | ABSORBANCE (OD) (serum 4280 at 1/50) | ABSORBANCE (OD) (serum 6111 at 1/100) | ABSORBANCE (OD) (serum DJOU at 1/100) | ABSORBANCE (OD) (serum DO15 at 1/100) | ABSORBANCE (OD) (serum MBASSI at 1/100) | ABSORBANCE (OD) (serum Maryland at ¼00) | ABSORBANCE (OD) (serum NGO at 1/50) | ABSORBANCE (OD) (serum NJEM at 1/100) | ABSORBANCE (OD) (serum WANG at 1/50) | immunoreactivity compared with the reference peptides (in words) |
| --- | --- | --- | --- | --- | --- | --- | --- | --- | --- | --- | --- | --- | --- | --- | --- | --- | --- | --- | --- |
| ALETLLQNQQLLNSWGCRGRLVCYTSVRWNET [PEPTIDE No. 11 (18B)] | 0 | 9 | 4 | 1 | 0.373 | 0.338 | 0.360 | 0.837 | 0.337 | 0.686 | 0.348 | 0.482 | 0.859 | 1.150 | 0.370 | 0.335 | 0.811 | 0.234 | – |
| RLQALETLIQNQQRLNLWGCKGKLICYTSVKWNTS (cysteine pairing not given here) [MVP 5180, reference compound] | 1 | 12 | 1 | 0 | 0.116 | 0.202 | 0.206 | 0.478 | 0.401 | 0.382 | 0.226 | 0.203 | 0.673 | 0.248 | 0.241 | 0.184 | 0.146 | 0.075 | – |
| LLNSWGCKGRLVCYTS [PEPTIDE No. 10 (14B)] | 3 | 2 | 5 | 4 | 0.587 | 0.838 | 0.482 | 1.108 | 0.347 | 0.022 | 0.596 | 1.268 | 1.613 | 1.217 | 0.524 | 0.067 | 0.032 | 0.698 | – |
| LNQQRLLNSWGCKGRLVCYTSV [PEPTIDE No. 14 (21B)] | 1 | 3 | 4 | 6 | 0.764 | 2.045 | 0.716 | 1.508 | 0.072 | 0.286 | 0.850 | 1.998 | 3.357 | 2.134 | 0.734 | 0.157 | 0.277 | 2.397 | most immunoreactive |
| RLNSWGCKGRLVCYTSV [PEPTIDE No. 16 (23B)] | 2 | 2 | 1 | 9 | 1.692 | 1.791 | 0.933 | 1.679 | 0.406 | 0.033 | 1.009 | 2.166 | 3.038 | 2.683 | 1.229 | 0.110 | 0.025 | 1.290 | most immunoreactive |
| RALETLLNQQRLLNSWGCKGRLVCYTSV [PEPTIDE No. 15 (22B)] | 0 | 2 | 4 | 8 | 1.184 | 2.122 | 0.801 | 1.627 | 0.380 | 0.689 | 1.207 | 2.088 | 3.693 | 2.010 | 0.844 | 0.315 | 0.939 | 2.680 | most immunoreactive |
